Experimental data taken from patent publication US9668477B2, “Active compound combinations” (BAYER CROPSCIENCE AG, priority 2012, dated 2017).

Columns and labels:
Type in all cases: in vivo
[1] = tested on: Phakopsora pachyrhizi; test: Phakopsora test (soybeans)/preventive; settings: 7 days after inoculation
[2] = tested on: Pyrenophora teres; test: Pyrenophora teres-test (barley)/preventive; settings: Table F1, 8 days after inoculation
Method: (§1) Solvent: 49 parts by weight of N,N-dimethylacetamide
(§2) Emulsifier: 1 part by weight of alkylaryl polyglycol ether
(§3) To produce a suitable preparation of active compound, 1 part by weight of active compound or active compound combination is mixed with the stated amounts of solvent and emulsifier, and the concentrate is diluted with water to the desired concentration.
(§4) To test for preventive activity, young plants are sprayed with the preparation of active compound or active compound combination at the stated rate of application.
After the spray coating has been dried, the plants are sprayed with a spore suspension of Pyrenophora teres. The plants remain for 48 hours in an incubation cabinet at approximately 20° C. and a relative atmospheric humidity of approximately 100%.
(§5) The plants are placed in the greenhouse at a temperature of approximately 20° C. and a relative atmospheric humidity of approximately 80%.
(§6) The test is evaluated 8 days after the inoculation. 0% means an efficacy which corresponds to that of the untreated control, while an efficacy of 100% means that no disease is observed.

[3] = tested on: Uromyces appendiculatus; test: Uromyces test (beans)/preventive; settings: 10 days after inoculation
Method: (§7) Solvent: 24.5 parts by weight of acetone • 24.5 parts by weight of dimethylacetamide
as §2
(§8) To produce a suitable preparation of active compound, 1 part by weight of active compound is mixed with the stated amounts of solvent and emulsifier, and the concentrate is diluted with water to the desired concentration.
(§9) To test for preventive activity, young plants are sprayed with the preparation of active compound at the stated rate of application. After the spray coating has dried on, the plants are inoculated with an aqueous spore suspension of the causal agent of bean rust (Uromyces appendiculatus) and then remain for 1 day in an incubation cabinet at approximately 20° C. and a relative atmospheric humidity of 100%.
The plants are then placed in a greenhouse at approximately 21° C. and a relative atmospheric humidity of approximately 90%.
The test is evaluated 10 days after the inoculation. 0% means an efficacy which corresponds to that of the untreated control, while an efficacy of 100% means that no disease is observed.

[4] = tested on: Sphaerotheca fuliginea; test: Sphaerotheca test (cucumbers)/preventive; settings: Table G1, 7 days after inoculation
Method: (§10) Solvent: 24.5 parts by weight of acetone • 24.5 parts by weight of dimethylacetamide Emulsifier: 1 part by weight of alkylaryl polyglycol ether To produce a suitable preparation of active compound, 1 part by weight of active compound is mixed with the stated amounts of solvent and emulsifier, and the concentrate is diluted with water to the desired concentration. To test for preventive activity, young plants are sprayed with the preparation of active compound at the stated rate of application. After the spray coating has dried on, the plants are inoculated with an aqueous spore suspension of Sphaerotheca fuliginea.

[5] = tested on: Puccinia triticina; test: Puccinia triticina-test (wheat)/preventive; settings: Table E1, 8 days after inoculation
Method: as §1, §2, §3, §4
After the spray coating has been dried, the plants are sprayed with a spore suspension of Puccinia triticina. The plants remain for 48 hours in an incubation cabinet at approximately 20° C. and a relative atmospheric humidity of approximately 100%.
as §5, §6

[6] = tested on: Blumeria graminis f.sp. hordei; test: Blumeria test (barley)/preventive; settings: Table B1, 7 days after inoculation
Method: (§11) Solvent: 49 parts by weight of N,N-dimethylacetamide Emulsifier: 1 part by weight of alkylaryl polyglycol ether To produce a suitable preparation of active compound, 1 part by weight of active compound or active compound combination is mixed with the stated amounts of solvent and emulsifier, and the concentrate is diluted with water to the desired concentration. To test for preventive activity, young plants are sprayed with the preparation of active compound or active compound combination at the stated rate of application. After the spray coating has been dried, the plants are dusted with spores of Blumeria graminis f.sp. hordei.

[7] = tested on: Venturia inaequalis; test: Venturia test (apples)/preventive; settings: Table I1, 10 days after inoculation
Method: as §10, with “application.” for “application. After the spray coating has dried on, the plants are inoculated with an aqueous spore suspension of Sphaerotheca fuliginea.”

[8] = tested on: Alternaria solani; test: Alternaria test (tomatoes)/preventive; settings: 3 days after inoculation
Method: as §7, §2, §8
as §9, with “Alternaria solani. The plants are” for “the causal agent of bean rust (Uromyces appendiculatus) and”, “placed” for “remain for 1 day”
The test is evaluated 3 days after the inoculation. 0% means an efficacy which corresponds to that of the untreated control while an efficacy of 100% means that no disease is observed.

[9] = tested on: Leptosphaeria nodorum; test: Leptosphaeria nodorum test (wheat)/preventive; settings: Table C1, 8 days after inoculation
Method: as §11, with “sprayed” for “dusted”, “a spore suspension” for “spores”, “Leptosphaeria nodorum.” for “Blumeria graminis f.sp. hordei.”

[10] = Phakopsora pachyrhizi, 168 h, Table D1, 1 ppm a.i., read-out: Efficacy in % found

Q: What does the source list for Cn1cc(C(=O)Nc2ccccc2-c2cc(F)c(F)c(F)c2)c(C(F)F)n1 [2.8, fluxapyroxad]?
A: Efficacy in % found ([1]; Table D1, 1 ppm a.i.): 0%; Efficacy in % found ([2]; 40 ppm a.i.): 94%; Efficacy in % found ([3]; Table H1, 0.25 ppm a.i.): 0%

Q: For O=C(NCCc1ncc(C(F)(F)F)cc1Cl)c1ccccc1C(F)(F)F [2.6, fluopyram], which pest or weed control at 4 ppm ([1]; Phakopsora pachyrhizi, 168 h, Table D1, 4 ppm a.i., read-out: Efficacy in % found) is on record?
A: 0%

Q: What about the “Efficacy in % found” value ([2]; 40 ppm a.i.) of the same molecule?
A: 94%

Q: With CC(C)(C)C(O)(CCc1ccc(Cl)cc1)Cn1cncn1 (stereo not drawn) [1.47, tebuconazole] as the molecule, how does the pest or weed control at 1 ppm [1, 10] read?
A: 58%

Q: What about the “Efficacy in % found” value ([4]; 2.5 ppm a.i.) of the same molecule?
A: 38%

Q: And the “Efficacy in % found” value ([3]; Table H2, 2 ppm a.i.)?
A: 30%

Q: Which pest or weed control at 0.5 ppm ([1]; Phakopsora pachyrhizi, 168 h, Table D2, 0.5 ppm a.i., read-out: Efficacy in % found) does the source give for OC(Cc1ccccc1Cl)(Cn1nc[nH]c1=S)C1(Cl)CC1 (stereo not drawn) [1.41, prothioconazole] here?
A: 20%

Q: What about the “Efficacy in % found” value ([5]; 80 ppm a.i.) of the same molecule?
A: 20%

Q: Which “Efficacy in % found” value ([6]; 80 ppm a.i.) does the source give for CC1CC(C)(C)c2cccc(NC(=O)c3cn(C)nc3C(F)F)c21 (stereo not drawn) [2.32, 3-(difluoromethyl)-1-methyl-N-(1,1,3-trimethyl-2,3-dihydro-1H-inden-4-yl)-1H-pyrazole-4-carboxamide] here?
A: 30%

Q: Which results are given for CON=C(C(=O)OC)c1ccccc1CON=C(C)c1cccc(C(F)(F)F)c1 [3.22, trifloxystrobin]?
A: Efficacy in % found ([5]; 20 ppm a.i.): 60%; Efficacy in % found ([7]; 0.5 ppm a.i.): 86%

Q: Which “Efficacy in % found” value ([2]; 20 ppm a.i.) does the source give for CO/N=C(/C1=NOCCO1)c1ccccc1Oc1ncnc(Oc2ccccc2Cl)c1F [3.12, fluoxastrobin] here?
A: 13%

Q: What does the source list for CC(C1CC1)C(O)(Cn1cncn1)c1ccc(Cl)cc1 (stereo not drawn) [1.5, cyproconazole]?
A: pest or weed control at 1 ppm [1, 10]: 63%; Efficacy in % found ([3]; Table H3, 1 ppm a.i.): 57%; Efficacy in % found ([7]; 2 ppm a.i.): 40%

Q: CC1(C)CCC(Cc2ccc(Cl)cc2)C1(O)Cn1cncn1 (stereo not drawn) [1.30, metconazole] was tested. Which “Efficacy in % found” value ([5]; 40 ppm a.i.) did it give?
A: 70%

Q: Which results are given for Cn1c(=O)c2sc3c(=O)n(C)c(=O)c3sc2c1=O [15.61, 2,6-dimethyl-1H,5H-[1,4]dithiino[2,3-c:5,6-c′]dipyrrole-1,3,5,7(2H,6H)-tetrone]?
A: Efficacy in % found ([8]; Table A2, 50 ppm a.i.): 23%; Efficacy in % found ([5]; 800 ppm a.i.): 40%; Efficacy in % found ([4]; 25 ppm a.i.): 38%

Q: How did the “Efficacy in % found” value ([6]; 40 ppm a.i.) turn out when CO/C=C(/C(=O)OC)c1ccccc1COc1cccc(C(F)(F)F)n1 [3.16, picoxystrobin] was run?
A: 30%

Q: And the “Efficacy in % found” value ([2]; 40 ppm a.i.)?
A: 75%

Q: And the “Efficacy in % found” value ([3]; Table H1, 2.5 ppm a.i.)?
A: 65%

Q: With propineb [5.29] as the molecule, how does the “Efficacy in % found” value ([8]; Table A2, 20 ppm a.i.) read?
A: 12%

Q: What about the “Efficacy in % found” value ([9]; 400 ppm a.i.) of the same molecule?
A: 33%

Q: What about the “Efficacy in % found” value ([5]; 400 ppm a.i.) of the same molecule?
A: 30%

Q: And the “Efficacy in % found” value ([4]; 10 ppm a.i.)?
A: 29%

Q: And the “Efficacy in % found” value ([3]; Table H2, 20 ppm a.i.)?
A: 56%

Q: What about the “Efficacy in % found” value ([7]; 5 ppm a.i.) of the same molecule?
A: 14%

Q: Which results are given for N#Cc1c(Cl)c(Cl)c(Cl)c(C#N)c1Cl [5.4, chlorothalonil]?
A: Efficacy in % found ([8]; Table A2, 20 ppm a.i.): 8%; Efficacy in % found ([5]; 160 ppm a.i.): 20%; Efficacy in % found ([4]; 5 ppm a.i.): 19%; Efficacy in % found ([3]; Table H2, 20 ppm a.i.): 0%; Efficacy in % found ([7]; 20 ppm a.i.): 68%

Q: Which results are given for Cn1cc(C(=O)Nc2cccc3c2[C@@H]2CC[C@H]3C2=C(Cl)Cl)c(C(F)F)n1 (racemic) [2.29, benzovindiflupyr]?
A: Efficacy in % found ([1]; Table D1, 0.5 ppm a.i.): 8%; Efficacy in % found ([2]; 40 ppm a.i.): 0%

Q: How did the “Efficacy in % found” value ([9]; 40 ppm a.i.) turn out when Fc1ccc([C@]2(Cn3cncn3)O[C@H]2c2ccccc2Cl)cc1 (racemic) [1.12, epoxiconazole] was run?
A: 33%

Q: And the “Efficacy in % found” value ([1]; Table D2, 0.5 ppm a.i.)?
A: 23%

Q: CC(C)c1ccc(Cl)cc1CN(C(=O)c1c(C(F)F)nn(C)c1F)C1CC1 [15.151, N-(5-chloro-2-isopropylbenzyl)-N-cyclopropyl-3-(difluoromethyl)-5-fluoro-1-methyl-1H-pyrazole-4-carboxamide] was tested. Which “Efficacy in % found” value ([8]; Table A1, 0.25 ppm a.i.) did it give?
A: 39%

Q: And the “Efficacy in % found” value ([6]; 20 ppm a.i.)?
A: 0%

Q: And the “Efficacy in % found” value ([2]; 20 ppm a.i.)?
A: 88%

Q: What does the source list for Cn1cc(C(=O)Nc2ccc(F)cc2-c2ccc(Cl)c(Cl)c2)c(C(F)F)n1 [2.1, bixafen]?
A: Efficacy in % found ([8]; Table A1, 0.5 ppm a.i.): 43%; Efficacy in % found ([1]; Table D1, 1 ppm a.i.): 0%; Efficacy in % found ([2]; 80 ppm a.i.): 94%; Efficacy in % found ([7]; 0.5 ppm a.i.): 0%

Q: How did the “Efficacy in % found” value ([5]; 20 ppm a.i.) turn out when COC(=O)N(OC)c1ccccc1COc1ccn(-c2ccc(Cl)cc2)n1 [3.17, pyraclostrobin] was run?
A: 20%

Q: Which results are given for CO/C=C(/C(=O)OC)c1ccccc1Oc1cc(Oc2ccccc2C#N)ncn1 [3.3, azoxystrobin]?
A: Efficacy in % found ([6]; 20 ppm a.i.): 10%; Efficacy in % found ([1]; Table D1, 0.25 ppm a.i.): 15%; Efficacy in % found ([2]; 20 ppm a.i.): 75%; Efficacy in % found ([3]; Table H3, 0.125 ppm a.i.): 0%; Efficacy in % found ([7]; 0.5 ppm a.i.): 88%

Q: How did the “Efficacy in % found” value ([6]; 80 ppm a.i.) turn out when CC(C)CC(C)c1sccc1NC(=O)c1cn(C)nc1C(F)(F)F (stereo not drawn) [2.21, penthiopyrad] was run?
A: 30%

Q: And the “Efficacy in % found” value ([2]; 80 ppm a.i.)?
A: 63%
